This is an account of results in PMC8286840, “Identifying SARS-CoV-2 antiviral compounds by screening for small molecule inhibitors of Nsp3 papain-like protease” (Biochemical Journal, 2021).

Each structure is given as a SMILES string. Structures can show the parent of a compound that is named as a salt. Where two headings read alike, the source gives them in different places.

The target of experiment [1] is T1, SARS-CoV-2 PLpro (nsp3 1564–1878) (Severe acute respiratory syndrome coronavirus 2, UniProt P0DTD1). As to the kind of experiment: biochemical. Particulars: low concentration screen, read-out: % of control remaining. Also on record: FRET-quenched peptide (Pro3) cleavage by PLpro, 10 min pre-incubation, slope over 20 min, normalised to no-compound control.
The target in experiment [2] is T1, SARS-CoV-2 PLpro (nsp3 1564–1878). Put plainly: biochemical. Particulars: high concentration screen, read-out: % of control remaining. On the set-up: FRET-quenched peptide (Pro3) cleavage by PLpro, 10 min pre-incubation, slope over 20 min, normalised to no-compound control.

Turning to `C[C@@H]1O[C@@H](OC[C@H]2O[C@@H](Oc3cc(O)c4c(c3)O[C@H](c3ccc(O)cc3)CC4=O)[C@H](O)[C@@H](O)[C@@H]2O)[C@H](O)[C@H](O)[C@H]1O` [Narirutin], the remaining activity at 1.25 µM in experiment [1] (Well no.=3347) is 91.9%. Also, the remaining activity at 3.75 µM in experiment [2] (Well no.=3347) stood at 93.8%.

Regarding `CC(C)[C@H]1CC[C@H](C(=O)N[C@H](Cc2ccccc2)C(=O)O)CC1` [Nateglinide], the remaining activity at 1.25 µM in experiment [1] (Well no.=1546) was 103%; in experiment [1] (Well no.=7504) it was 102%. Besides, the remaining activity at 3.75 µM came to 103% in experiment [2] (Well no.=1546) and 102% in experiment [2] (Well no.=7504).

As for `CC[C@@H](Nc1c(Nc2cccc(C(=O)N(C)C)c2O)c(=O)c1=O)c1ccc(C)o1` [Navarixin], in experiment [1] (Well no.=8175), the remaining activity at 1.25 µM turned out to be 105%. Further, the remaining activity at 3.75 µM in experiment [2] (Well no.=8175) stood at 101%.

With `CC1(C)CCC(c2ccc(Cl)cc2)=C(CN2CCN(c3ccc(C(=O)NS(=O)(=O)c4ccc(N[C@H](CCN5CCOCC5)CSc5ccccc5)c(S(=O)(=O)C(F)(F)F)c4)cc3)CC2)C1` [Navitoclax], the remaining activity at 1.25 µM in experiment [1] (Well no.=6580) was determined as 93.1%; in experiment [1] (Well no.=8224) it was 103%. In addition, the remaining activity at 3.75 µM in experiment [2] (Well no.=6580) was 92.2%; in experiment [2] (Well no.=8224) it was 94.8%.

Turning to `O[C@H](CNC[C@@H](O)[C@H]1CCc2cc(F)ccc2O1)[C@@H]1CCc2cc(F)ccc2O1` [Nebivolol (hydrochloride)], the remaining activity at 1.25 µM in experiment [1] (Well no.=8139) amounted to 105%. Also, the remaining activity at 3.75 µM in experiment [2] (Well no.=8139) amounted to 102%.

As to `CN1C(=O)N[C@@H](Cc2c[nH]c3c(Cl)cccc23)C1=O` [Necrostatin 2 (S enantiomer)], in experiment [1] (Well no.=7166), the remaining activity at 1.25 µM stood at 97.6%. The remaining activity at 3.75 µM in experiment [2] (Well no.=7166) stood at 94.3%.

With `CN1C(=O)N[C@H](Cc2c[nH]c3c(Cl)cccc23)C1=O` [Necrostatin 2], the remaining activity at 1.25 µM in experiment [1] (Well no.=6916) was 99.4%. In addition, in experiment [2] (Well no.=6916), the remaining activity at 3.75 µM was determined as 98.6%.

Regarding `CN1C(=O)C(Cc2c[nH]c3ccccc23)NC1=S` (stereo not drawn) [Necrostatin-1], the remaining activity at 1.25 µM in experiment [1] (Well no.=2493) was 95.6%; in experiment [1] (Well no.=6196), 92.6%; in experiment [1] (Well no.=8505), 109%. For the same compound, the results for the remaining activity at 3.75 µM in experiment [2] (Well no.=2493), in experiment [2] (Well no.=6196) and in experiment [2] (Well no.=8505) were 98.6%, 92.5% and 104%, respectively.

Take `COc1ccc(-n2c(SCC#N)nc3sc4c(c3c2=O)CCCC4)cc1` [Necrostatin-5]: the remaining activity at 1.25 µM in experiment [1] (Well no.=6060) was 98.5%. The remaining activity at 3.75 µM in experiment [2] (Well no.=6060) is 95.8%.

Take `CCCc1c2oc(C(=O)O)cc(=O)c2cc2c(=O)cc(C(=O)O)n(CC)c12` [Nedocromil]: in experiment [1] (Well no.=6525), the remaining activity at 1.25 µM amounted to 95.3%. In addition, the remaining activity at 3.75 µM in experiment [2] (Well no.=6525) was determined as 95%.

For `CCc1nn(CCCN2CCN(c3cccc(Cl)c3)CC2)c(=O)n1CCOc1ccccc1` [Nefazodone (hydrochloride)], the remaining activity at 1.25 µM in experiment [1] (Well no.=6765) was 97.2%. In experiment [2] (Well no.=6765), the remaining activity at 3.75 µM is 92.8%.

As for `CCc1nn(CCCN2CCN(c3cccc(Cl)c3)CC2)c(=O)n1CCOc1ccccc1` [Nefazodone], the remaining activity at 1.25 µM in experiment [1] (Well no.=2009) came out at 101%. The remaining activity at 3.75 µM in experiment [2] (Well no.=2009) was 101%.

In the case of `Cc1c(O)cccc1C(=O)N[C@@H](CSc1ccccc1)[C@H](O)CN1C[C@H]2CCCC[C@H]2C[C@H]1C(=O)NC(C)(C)C` [Nelfinavir mesylate], the remaining activity at 1.25 µM in experiment [1] (Well no.=2201) amounted to 95.1%; in experiment [1] (Well no.=8156), 102%. In addition, the remaining activity at 3.75 µM in experiment [2] (Well no.=2201) came to 97.3%; in experiment [2] (Well no.=8156) it was 103%.

Turning to `O=C(/C=C/c1ccc(O)c(O)c1)O[C@@H]1C[C@@](O)(C(=O)O)C[C@@H](O)[C@@H]1O` [Neochlorogenic acid], the remaining activity at 1.25 µM in experiment [1] (Well no.=6490) was 98%. In addition, in experiment [2] (Well no.=6490), the remaining activity at 3.75 µM is 98.3%.

With `COc1ccc([C@@H]2CC(=O)c3c(O)cc(O[C@@H]4O[C@H](CO)[C@@H](O)[C@H](O)[C@H]4O[C@@H]4O[C@@H](C)[C@H](O)[C@@H](O)[C@H]4O)cc3O2)cc1O` [Neohesperidin], the remaining activity at 1.25 µM in experiment [1] (Well no.=3444) is 98.8%. Besides, the remaining activity at 3.75 µM in experiment [2] (Well no.=3444) came to 98.5%.

Regarding `NC[C@@H]1O[C@H](O[C@H]2[C@@H](O)[C@H](O[C@@H]3[C@@H](O)[C@H](N)C[C@H](N)[C@H]3O[C@H]3O[C@H](CN)[C@@H](O)[C@H](O)[C@H]3N)O[C@@H]2CO)[C@H](N)[C@@H](O)[C@@H]1O` [Neomycin], the remaining activity at 1.25 µM in experiment [1] (Well no.=1911) was found to be 94.3%; in experiment [1] (Well no.=3419), 87.7%. In addition, the values for the remaining activity at 3.75 µM in experiment [2] (Well no.=1911) and in experiment [2] (Well no.=3419) were 94.6% and 90%, respectively.

Take `CN(C)C(=O)Oc1cccc([N+](C)(C)C)c1` [Neostigmine methyl sulfate]: the remaining activity at 1.25 µM in experiment [1] (Well no.=6077) was determined as 102%. In addition, the remaining activity at 3.75 µM in experiment [2] (Well no.=6077) was 101%.

Regarding `CN(C)C(=O)Oc1cccc([N+](C)(C)C)c1` [Neostigmine], in experiment [1] (Well no.=1558), the remaining activity at 1.25 µM turned out to be 106%. Besides, the remaining activity at 3.75 µM in experiment [2] (Well no.=1558) is 103%.

Turning to `NC(=O)Cc1cccc(C(=O)c2ccccc2)c1N` [Nepafenac], in experiment [1] (Well no.=4761), the remaining activity at 1.25 µM is 103%. Further, the remaining activity at 3.75 µM in experiment [2] (Well no.=4761) came to 104%.

Take `NCc1c[nH]c(=S)n1[C@H]1CCc2c(F)cc(F)cc2C1` [Nepicastat hydrochloride]: the remaining activity at 1.25 µM in experiment [1] (Well no.=6033) amounted to 100%. In experiment [2] (Well no.=6033), the remaining activity at 3.75 µM is 102%.

`CC(=O)NCCCC[C@H](N)C(=O)O` [Nepsilon-Acetyl-L-lysine]: in experiment [1] (Well no.=6211), the remaining activity at 1.25 µM came to 116%. The remaining activity at 3.75 µM in experiment [2] (Well no.=6211) came out at 106%.

In the case of `CCN[C@@H]1C[C@H](N)[C@@H](O[C@H]2OC(CN)=CC[C@H]2N)[C@H](O)[C@H]1O[C@H]1OC[C@](C)(O)[C@H](NC)[C@H]1O` [Netilmicin Sulfate], in experiment [1] (Well no.=4696), the remaining activity at 1.25 µM came out at 102%. For the same compound, the remaining activity at 3.75 µM in experiment [2] (Well no.=4696) is 101%.

Turning to `O=C(O)c1cccnc1` [Niacin], the remaining activity at 1.25 µM in experiment [1] (Well no.=6401) is 102%. The remaining activity at 3.75 µM in experiment [2] (Well no.=6401) amounted to 96.9%.

Take `O=C(CCNNC(=O)c1ccncc1)NCc1ccccc1` [Nialamide]: the remaining activity at 1.25 µM in experiment [1] (Well no.=1091) came out at 95.4%; in experiment [1] (Well no.=1837), 97.6%. The remaining activity at 3.75 µM in experiment [2] (Well no.=1091) was found to be 93.8%; in experiment [2] (Well no.=1837), 97.3%.

Turning to `COC(=O)C1=C(C)NC(C)=C(C(=O)OCCN(C)Cc2ccccc2)C1c1cccc([N+](=O)[O-])c1` (stereo not drawn) [Nicardipine hydrochloride], the remaining activity at 1.25 µM in experiment [1] (Well no.=811) turned out to be 103%. The remaining activity at 3.75 µM in experiment [2] (Well no.=811) stood at 103%.

In the case of `COC(=O)C1=C(C)NC(C)=C(C(=O)OCCN(C)Cc2ccccc2)C1c1cccc([N+](=O)[O-])c1` (stereo not drawn) [Nicardipine.HCl], the remaining activity at 1.25 µM in experiment [1] (Well no.=1593) was 104%. Besides, the remaining activity at 3.75 µM in experiment [2] (Well no.=1593) worked out at 104%.
